# System: 377384-186-R-J1-PDC complex spheroid viability
# Test: Anticancer human tumor 377384-186-R-J1-PDC patient-derived pancreatic carcinoma cell line growth inhibition [CLK]
# Details: for IC50: curve of first compound; for viability, T/C: stronger effect = lower value
# Outline: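 Patient-derived tumor cells grown as complex spheroids with HUVEC endothelial cells and mesenchymal stem cells, treated with drug combinations. Concentrations descend in half-log steps from near clinical Cmax, or from 10 microM if Cmax unknown.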
# 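Note: spheroids exposed to agents for 7 days before reading.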
# 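Throughout, for viability, T/C: luminescence signal used as a stand-in for viable cells.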
structure (smiles),measurement,setting,value
CC1COCCN1c1cc(C2(S(C)(=N)=O)CC2)nc(-c2ccnc3[nH]ccc23)n1 (centres undefined) + CN1CCN(c2cc(C(=O)Nc3cc4cc(-c5cnn(C)c5)ccc4cn3)ccn2)CC1,IC50,second compound 0.0316 µM,2.16 µM
same,IC50,second compound 0.1 µM,1.84 µM
same,IC50,second compound 0.316 µM,< 0.0316 µM
same,IC50,second compound 1 µM,< 0.0316 µM
same,IC50,second compound 3.16 µM,< 0.0316 µM
same,IC50,second compound 10 µM,< 0.0316 µM
same,"viability, T/C","second compound 0.0316 µM, first compound 0.0316 µM",97.6%
same,"viability, T/C","second compound 0.0316 µM, first compound 0.1 µM",102%
same,"viability, T/C","second compound 0.0316 µM, first compound 0.316 µM",97.8%
same,"viability, T/C","second compound 0.0316 µM, first compound 1 µM",77.3%
same,"viability, T/C","second compound 0.0316 µM, first compound 3.16 µM",36.7%
same,"viability, T/C","second compound 0.0316 µM, first compound 10 µM",19.1%
same,"viability, T/C","second compound 0.1 µM, first compound 0.0316 µM",110%
same,"viability, T/C","second compound 0.1 µM, first compound 0.1 µM",108%
same,"viability, T/C","second compound 0.1 µM, first compound 0.316 µM",95.5%
same,"viability, T/C","second compound 0.1 µM, first compound 1 µM",69.1%
same,"viability, T/C","second compound 0.1 µM, first compound 3.16 µM",33.1%
same,"viability, T/C","second compound 0.1 µM, first compound 10 µM",17.2%
same,"viability, T/C","second compound 0.316 µM, first compound 0.0316 µM",27%
same,"viability, T/C","second compound 0.316 µM, first compound 0.1 µM",32%
same,"viability, T/C","second compound 0.316 µM, first compound 0.316 µM",24.1%
same,"viability, T/C","second compound 0.316 µM, first compound 1 µM",24.8%
same,"viability, T/C","second compound 0.316 µM, first compound 3.16 µM",14.1%
same,"viability, T/C","second compound 0.316 µM, first compound 10 µM",9.42%
same,"viability, T/C","second compound 1 µM, first compound 0.0316 µM",1.04%
same,"viability, T/C","second compound 1 µM, first compound 0.1 µM",1.24%
same,"viability, T/C","second compound 1 µM, first compound 0.316 µM",1.39%
same,"viability, T/C","second compound 1 µM, first compound 1 µM",1.11%
same,"viability, T/C","second compound 1 µM, first compound 3.16 µM",0.85%
same,"viability, T/C","second compound 1 µM, first compound 10 µM",0.48%
same,"viability, T/C","second compound 3.16 µM, first compound 0.0316 µM",0.45%
same,"viability, T/C","second compound 3.16 µM, first compound 0.1 µM",0.34%
same,"viability, T/C","second compound 3.16 µM, first compound 0.316 µM",0.48%
same,"viability, T/C","second compound 3.16 µM, first compound 1 µM",0.44%
same,"viability, T/C","second compound 3.16 µM, first compound 3.16 µM",0.69%
same,"viability, T/C","second compound 3.16 µM, first compound 10 µM",0.65%
same,"viability, T/C","second compound 10 µM, first compound 0.0316 µM",0.51%
same,"viability, T/C","second compound 10 µM, first compound 0.1 µM",0.45%
same,"viability, T/C","second compound 10 µM, first compound 0.316 µM",1.23%
same,"viability, T/C","second compound 10 µM, first compound 1 µM",0.54%
same,"viability, T/C","second compound 10 µM, first compound 3.16 µM",1.37%
same,"viability, T/C","second compound 10 µM, first compound 10 µM",0.58%
NC(=O)C(=Cn1cnc(-c2cc(C(F)(F)F)cc(C(F)(F)F)c2)n1)c1cncnc1 + CN1CCN(c2cc(C(=O)Nc3cc4cc(-c5cnn(C)c5)ccc4cn3)ccn2)CC1,IC50,second compound 0.0316 µM,0.0996 µM
same,IC50,second compound 0.1 µM,0.0505 µM
same,IC50,second compound 0.316 µM,< 0.00949 µM
same,IC50,second compound 1 µM,< 0.00949 µM
same,IC50,second compound 3.16 µM,< 0.00949 µM
same,IC50,second compound 10 µM,< 0.00949 µM
same,"viability, T/C","second compound 0.0316 µM, first compound 0.00949 µM",81.1%
same,"viability, T/C","second compound 0.0316 µM, first compound 0.03 µM",76%
same,"viability, T/C","second compound 0.0316 µM, first compound 0.0949 µM",50.1%
same,"viability, T/C","second compound 0.0316 µM, first compound 0.3 µM",21.7%
same,"viability, T/C","second compound 0.0316 µM, first compound 0.949 µM",5.88%
same,"viability, T/C","second compound 0.0316 µM, first compound 3 µM",2%
same,"viability, T/C","second compound 0.1 µM, first compound 0.00949 µM",87.6%
same,"viability, T/C","second compound 0.1 µM, first compound 0.03 µM",63.4%
same,"viability, T/C","second compound 0.1 µM, first compound 0.0949 µM",33.6%
same,"viability, T/C","second compound 0.1 µM, first compound 0.3 µM",14.3%
same,"viability, T/C","second compound 0.1 µM, first compound 0.949 µM",3.11%
same,"viability, T/C","second compound 0.1 µM, first compound 3 µM",1.52%
same,"viability, T/C","second compound 0.316 µM, first compound 0.00949 µM",21.2%
same,"viability, T/C","second compound 0.316 µM, first compound 0.03 µM",15%
same,"viability, T/C","second compound 0.316 µM, first compound 0.0949 µM",8.59%
same,"viability, T/C","second compound 0.316 µM, first compound 0.3 µM",1.27%
same,"viability, T/C","second compound 0.316 µM, first compound 0.949 µM",1.18%
same,"viability, T/C","second compound 0.316 µM, first compound 3 µM",2%
same,"viability, T/C","second compound 1 µM, first compound 0.00949 µM",0.39%
same,"viability, T/C","second compound 1 µM, first compound 0.03 µM",0.58%
same,"viability, T/C","second compound 1 µM, first compound 0.0949 µM",1.29%
same,"viability, T/C","second compound 1 µM, first compound 0.3 µM",1.21%
same,"viability, T/C","second compound 1 µM, first compound 0.949 µM",2.26%
same,"viability, T/C","second compound 1 µM, first compound 3 µM",2.39%
same,"viability, T/C","second compound 3.16 µM, first compound 0.00949 µM",0.7%
same,"viability, T/C","second compound 3.16 µM, first compound 0.03 µM",1.97%
same,"viability, T/C","second compound 3.16 µM, first compound 0.0949 µM",1.72%
same,"viability, T/C","second compound 3.16 µM, first compound 0.3 µM",1.71%
same,"viability, T/C","second compound 3.16 µM, first compound 0.949 µM",1.82%
same,"viability, T/C","second compound 3.16 µM, first compound 3 µM",2.81%
same,"viability, T/C","second compound 10 µM, first compound 0.00949 µM",0.61%
same,"viability, T/C","second compound 10 µM, first compound 0.03 µM",0.97%
same,"viability, T/C","second compound 10 µM, first compound 0.0949 µM",1.5%
same,"viability, T/C","second compound 10 µM, first compound 0.3 µM",0.79%
same,"viability, T/C","second compound 10 µM, first compound 0.949 µM",0.88%
same,"viability, T/C","second compound 10 µM, first compound 3 µM",0.91%

# From PubChem BioAssay AID2060616 (Molecular Pharmacology Branch, DTP, NCI, 2025)
